Measurements taken from ChEMBL document CHEMBL5352381, “Design and development of a novel series of oral bivalent BET inhibitors with potent anticancer activities” (Eur J Med Chem, 2022).
Active and inactive are the calls of the source. The rule behind the calls is not given here.

How the values were obtained:
Ty-82 [1] = experiment: Antiproliferative activity against human Ty-82 cells incubated for 72 hrs by sulforhodamine B based cell counting kit-8 assay; assay type: functional; conditions: TY82, 72 h
Ty-82 [2] = experiment: Induction of apoptosis in human Ty-82 cells assessed as reduction of c-Myc mRNA level at 0.1 to 10 nM for 24 hrs by […]; assay type: functional, cell-based; conditions: dose 0.1-10 nM
MM1.S = experiment: Antiproliferative activity against human MM1.S cells incubated for 72 hrs by sulforhodamine B based cell counting kit-8 assay; assay type: functional
[3] = Toxicity in BALB/c mouse xenografted with human Ty-82 assessed as body weight loss treated at 0.25 to 0.5 mg/kg, po qd for 21 days; assay type: organism-based; conditions: in vivo, 504 h, dose 0.25-0.5 mg/kg, time 21 day
[4] = Metabolic stability in mouse liver microsomes assessed as half life; assay type: ADME, Microsome
Ty-82 [5] = experiment: Induction of apoptosis in human Ty-82 cells assessed as reduction of IDO1 mRNA level at 0.1 to 10 nM for 24 hrs by […]; assay type: functional, cell-based; conditions: dose 0.1-10 nM
[6] = Metabolic stability in mouse liver microsomes assessed as clearance; assay type: ADME, Microsome; conditions: read-out: CLH
Ty-82 [7] = experiment: Antitumor activity against human Ty-82 cells xenografted in BALB/c nude mouse assessed tumor growth inhibition treated at 0.5 mg/kg, po qd for 21 days relative to control; assay type: functional; conditions: TY82, 504 h, time 21 day, read-out: TGI
Ty-82 [8] = experiment: Induction of apoptosis in human Ty-82 cells assessed as increase in caspase 7 at 0.1 to 10 nM for 48 hrs […]; assay type: functional, cell-based; conditions: dose 0.1-10 nM
[9] = Toxicity in BALB/c mouse xenografted with human MV4-11 cells assessed as body weight loss at 0.6 mg/kg, po qd 21 days; assay type: organism-based; conditions: in vivo, 504 h, time 21 day
CAPAN-1 [10] = experiment: Induction of apoptosis in human CAPAN-1 cells assessed as increase in caspase 7 at 0.1 to 10 nM for 48 hrs […]; assay type: functional, cell-based; conditions: dose 0.1-10 nM
[11] = Metabolic stability in dog liver microsomes assessed as half life; assay type: ADME, Canis lupus familiaris, Microsome
MV4-11 = experiment: Antitumor activity against human MV4-11 cells xenografted in BALB/c mouse assessed as growth inhibition at 0.6 mg/kg, po qd 21 days relative to control; assay type: functional; conditions: MV4-11, 504 h, time 21 day, read-out: GI
[12] = Metabolic stability in human liver microsomes assessed as clearance; assay type: ADME, Microsome; conditions: read-out: CLH
Ty-82 [13] = experiment: Induction of apoptosis in human Ty-82 cells assessed as increase in caspase 3 at 0.1 to 10 nM for 48 hrs […]; assay type: functional, cell-based; conditions: dose 0.1-10 nM
Ty-82 [14] = experiment: Induction of apoptosis in human Ty-82 cells assessed as increase in cleaved PARP at 0.1 to 10 nM for 48 hrs […]; assay type: functional, cell-based; conditions: dose 0.1-10 nM
Ty-82 [15] = experiment: Induction of apoptosis in human Ty-82 cells assessed as increase in caspase 9 at 0.1 to 10 nM for 48 hrs […]; assay type: functional, cell-based; conditions: dose 0.1-10 nM
Ty-82 [16] = experiment: Induction of apoptosis in human Ty-82 cells for 48 hrs by annexin V-FITC based flow cytometric analysis; assay type: functional, cell-based; conditions: dose 0.1-10 nM
[17] = Metabolic stability in human liver microsomes assessed as half life; assay type: ADME, Microsome
CAPAN-1 [18] = experiment: Induction of apoptosis in human CAPAN-1 cells assessed as increased cleaved PARP at 0.1 to 10 nM for 48 hrs […]; assay type: functional, cell-based; conditions: dose 0.1-10 nM
[19] = Metabolic stability in dog liver microsomes assessed as clearance; assay type: ADME, Canis lupus familiaris, Microsome; conditions: read-out: CLH
CAPAN-1 [20] = experiment: Induction of apoptosis in human CAPAN-1 cells for 48 hrs by annexin V-FITC based flow cytometric analysis; assay type: functional, cell-based; conditions: dose 0.1-10 nM
CAPAN-1 [21] = experiment: Induction of apoptosis in human CAPAN-1 cells assessed as increase in caspase 9 at 0.1 to 10 nM for 48 hrs […]; assay type: functional, cell-based; conditions: dose 0.1-10 nM
[22] = Toxicity in BALB/c mouse xenografted with human Ty-82 assessed as death treated at 0.25 to 0.5 mg/kg, po qd for 21 days; assay type: organism-based; conditions: in vivo, 504 h, dose 0.25-0.5 mg/kg, time 21 day
CAPAN-1 [23] = experiment: Induction of apoptosis in human CAPAN-1 cells assessed as increase in caspase 3 at 0.1 to 10 nM for 48 hrs […]; assay type: functional, cell-based; conditions: dose 0.1-10 nM

In the case of `C[C@@H]1CN(C(=O)c2nc(-c3ccc4c(c3)N(C3CCC3)[C@H](C)C(=O)N4C)n(-c3cccc(Cl)c3)n2)[C@@H](C)CN1C(=O)c1nc(-c2ccc3c(c2)N(C2CCC2)[C@H](C)C(=O)N3C)n(-c2cccc(Cl)c2)n1`, the IC50 (Ty-82 [1]) is reported as 0.05 nM, the Activity (Ty-82 [2]) is reported as “Active” and the IC50 (MM1.S) is reported as 0.07 nM. The Activity [3] was “Toxic”, the half-life [4] was 3.72 h and the Activity (Ty-82 [5]) was “Active”. For the same compound, the microsomal CLint [6] was 6.2 µL/min/mg, the inhibition in vivo at 0.5 mg/kg (Ty-82 [7]) was 73.5% and the Activity (Ty-82 [8]) was “Active”. The Activity [9] was “Toxic”, the Activity (CAPAN-1 [10]) was “Active” and the half-life [11] was 14.6 h. For the same compound, the inhibition in vivo at 0.6 mg/kg (MV4-11) was 88.9%, the microsomal CLint [12] was 6 µL/min/mg and the Activity (Ty-82 [13]) was “Active”. The Activity (Ty-82 [14]) was “Active”, the Activity (Ty-82 [15]) was “Active” and the Activity (Ty-82 [16]) was “Dose-Dependent Effect”. For the same compound, the half-life [17] was 3.86 h, the Activity (CAPAN-1 [18]) was “Active” and the microsomal CLint [19] was 1.6 µL/min/mg. For the same compound, the Activity (CAPAN-1 [20]) was “Dose-Dependent Effect”, the Activity (CAPAN-1 [21]) was “Active” and the Activity [22] was “Non-Toxic”. For the same compound, the Activity (CAPAN-1 [23]) was “Active”.
